US7306804B2 (priority 1998, dated 2007)
“Also recorded” adds a separate entry of the source. Where two headings read alike, the source gives them in different places.

Experiments:
[1] = tested on: PBMCs; details: cited from earlier work
[2] = tested on: anti-peptide antibodies in serum; format: binding, chimpanzee; set-up: key: +, Positive (Titer > 1:100); −, Negative (Titer < 1:100)
[3] = tested on: PBMCs from normal and HIV-positive individuals; format: cell-based, human; details: for number of HIV+ individuals with positive proliferative responses: 17 HIV+ individuals tested
[4] = tested on: HIV envelope protein gp160; details: cited from earlier work; for T-cell proliferative response to immunizing peptide and HIV Env protein gp160 / antibodies recognizing recombinant gp160: immunized mice; for T-cell proliferation responses: two F1 hybrid mouse strains (B6C3 F1 and A.SW×Balb/c F1)
[5] = tested on: anti-peptide antibodies in serum; format: binding, human; set-up: key to Anti-peptide antibody response: +, Positive (titer above control); −, Negative (titer below control)
[6] = tested on: peptide-pulsed autologous EBV-transformed B cells (B-LCL); format: cell-based, human
[7] = tested on: PBMCs from control and HIV-1 infected chimpanzees; format: cell-based, chimpanzee; details: for number of HIV-infected chimpanzees with positive proliferative responses (SI>2.0): nine HIV-infected chimpanzees tested

SVITQACSKVSFE [Peptide 113]
proliferative response of PBMCs ([1]; monkey, in vivo): weak responses
Anti-peptide antibody response [2]: −
number of HIV+ individuals with positive proliferative responses [3]: five
T-cell proliferative response ([3]; HIV-positive patient MSf): − (−, Negative (SI < 2.0))
T-cell proliferative response ([3]; HIV-positive patient MSm): − (−, Negative (SI < 2.0))
T-cell proliferative response ([3]; HIV-positive patient eight): − (−, Negative (SI < 2.0))
T-cell proliferative response ([3]; HIV-positive patient eleven): − (−, Negative (SI < 2.0))
T-cell proliferative response ([3]; HIV-positive patient fifteen): + (+, Positive (Stimulation Index [SI] > 2.0))
T-cell proliferative response ([3]; HIV-positive patient five): − (−, Negative (SI < 2.0))
T-cell proliferative response ([3]; HIV-positive patient four): − (−, Negative (SI < 2.0))
T-cell proliferative response ([3]; HIV-positive patient fourteen): + (+, Positive (Stimulation Index [SI] > 2.0))
T-cell proliferative response ([3]; HIV-positive patient nine): − (−, Negative (SI < 2.0))
T-cell proliferative response ([3]; HIV-positive patient one): − (−, Negative (SI < 2.0))
T-cell proliferative response ([3]; HIV-positive patient seven): + (+, Positive (Stimulation Index [SI] > 2.0))
T-cell proliferative response ([3]; HIV-positive patient six): + (+, Positive (Stimulation Index [SI] > 2.0))
T-cell proliferative response ([3]; HIV-positive patient ten): − (−, Negative (SI < 2.0))
T-cell proliferative response ([3]; HIV-positive patient thirteen): + (+, Positive (Stimulation Index [SI] > 2.0))
T-cell proliferative response ([3]; HIV-positive patient three): − (−, Negative (SI < 2.0))
T-cell proliferative response ([3]; HIV-positive patient twelve): − (−, Negative (SI < 2.0))
T-cell proliferative response ([3]; HIV-positive patient two): − (−, Negative (SI < 2.0))
T-cell proliferative response ([3]; Normal-1 (HIV-seronegative)): − (−, Negative (SI < 2.0))
T-cell proliferative response ([3]; Normal-2 (HIV-seronegative)): − (−, Negative (SI < 2.0))
T-cell proliferative response to immunizing peptide and HIV Env protein gp160 [4]: induced a T-cell response against both the immunizing peptide and the HIV Env protein; also recorded: induced proliferative responses to both the immunizing peptide
antibodies recognizing recombinant gp160 [4]: did not produce antibodies that could recognize recombinant gp160
T-cell proliferation responses [4]: relatively good T-cell proliferation responses
Anti-peptide antibody response [5]: + and −
number of HIV+ individuals with positive antibody titers (<1:1280) [5]: one
% Specific lysis at various E:T ratios 12.5:1 [6]: 0%
% Specific lysis at various E:T ratios 25:1 [6]: 0%
% Specific lysis at various E:T ratios 50:1 [6]: 0%
% Specific lysis at various E:T ratios 100:1 [6]: 0%
CTL activity against peptide-pulsed autologous B-LCLs [6]: did not serve as a CTL epitope
T-cell proliferative response ([7]; chimpanzee 40, control normal): − (−, Negative (SI < 2.0))
T-cell proliferative response ([7]; chimpanzee 62, HIV-infected): + (+, Positive (Stimulation Index [SI] > 2.0))
T-cell proliferative response ([7]; chimpanzee 69, HIV-infected): + (+, Positive (Stimulation Index [SI] > 2.0))
T-cell proliferative response ([7]; chimpanzee 73, control normal): − (−, Negative (SI < 2.0))
T-cell proliferative response ([7]; chimpanzee 80, HIV-infected): + (+, Positive (Stimulation Index [SI] > 2.0))
T-cell proliferative response ([7]; chimpanzee 99, HIV-infected): − (−, Negative (SI < 2.0))
T-cell proliferative response ([7]; chimpanzee 100, HIV-infected): + (+, Positive (Stimulation Index [SI] > 2.0))
T-cell proliferative response ([7]; chimpanzee 139, HIV-infected): − (−, Negative (SI < 2.0))
T-cell proliferative response ([7]; chimpanzee 175, HIV-infected): + (+, Positive (Stimulation Index [SI] > 2.0))
T-cell proliferative response ([7]; chimpanzee 247, HIV-infected): − (−, Negative (SI < 2.0))
T-cell proliferative response ([7]; chimpanzee 310, HIV-infected): − (−, Negative (SI < 2.0))
number of HIV-infected chimpanzees with positive proliferative responses (SI>2.0) [7]: five

VYYGVPVWKEA [Peptide 104]
proliferative response of PBMCs ([1]; three monkeys immunized with peptide cocktail): good response
Anti-peptide antibody response [2]: −
Anti-peptide antibody response ([2]; chimpanzee 40, control normal): −
Anti-peptide antibody response ([2]; chimpanzee 73, control normal): −
number of HIV+ individuals with positive proliferative responses [3]: eight of the 17
T-cell proliferative response ([3]; HIV-positive patient MSf): − (−, Negative (SI < 2.0))
T-cell proliferative response ([3]; HIV-positive patient MSm): − (−, Negative (SI < 2.0))
T-cell proliferative response ([3]; HIV-positive patient eight): − (−, Negative (SI < 2.0))
T-cell proliferative response ([3]; HIV-positive patient eleven): + (+, Positive (Stimulation Index [SI] > 2.0))
T-cell proliferative response ([3]; HIV-positive patient fifteen): + (+, Positive (Stimulation Index [SI] > 2.0))
T-cell proliferative response ([3]; HIV-positive patient five): − (−, Negative (SI < 2.0))
T-cell proliferative response ([3]; HIV-positive patient four): − (−, Negative (SI < 2.0))
T-cell proliferative response ([3]; HIV-positive patient fourteen): − (−, Negative (SI < 2.0))
T-cell proliferative response ([3]; HIV-positive patient nine): + (+, Positive (Stimulation Index [SI] > 2.0))
T-cell proliferative response ([3]; HIV-positive patient one): − (−, Negative (SI < 2.0))
T-cell proliferative response ([3]; HIV-positive patient seven): − (−, Negative (SI < 2.0))
T-cell proliferative response ([3]; HIV-positive patient six): + (+, Positive (Stimulation Index [SI] > 2.0))
T-cell proliferative response ([3]; HIV-positive patient ten): − (−, Negative (SI < 2.0))
T-cell proliferative response ([3]; HIV-positive patient thirteen): + (+, Positive (Stimulation Index [SI] > 2.0))
T-cell proliferative response ([3]; HIV-positive patient three): + (+, Positive (Stimulation Index [SI] > 2.0))
T-cell proliferative response ([3]; HIV-positive patient twelve): + (+, Positive (Stimulation Index [SI] > 2.0))
T-cell proliferative response ([3]; HIV-positive patient two): + (+, Positive (Stimulation Index [SI] > 2.0))
T-cell proliferative response ([3]; Normal-1 (HIV-seronegative)): − (−, Negative (SI < 2.0))
T-cell proliferative response ([3]; Normal-2 (HIV-seronegative)): − (−, Negative (SI < 2.0))
SI values ([3]; in six of the eight responding HIV+ individuals): above 4.1
T-cell proliferative response to immunizing peptide and HIV Env protein gp160 [4]: induced a T-cell response against both the immunizing peptide and the HIV Env protein; also recorded: induced proliferative responses to both the immunizing peptide
antibodies recognizing recombinant gp160 [4]: did not produce antibodies that could recognize recombinant gp160
T-cell proliferation responses [4]: relatively good T-cell proliferation responses
number of HIV+ individuals with positive antibody titers (<1:1280) [5]: three
Anti-peptide antibody response ([5]; HIV-positive patient MSf): −
Anti-peptide antibody response ([5]; HIV-positive patient MSm): −
Anti-peptide antibody response ([5]; HIV-positive patient eight): −
Anti-peptide antibody response ([5]; HIV-positive patient eleven): −
Anti-peptide antibody response ([5]; HIV-positive patient fifteen): −
Anti-peptide antibody response ([5]; HIV-positive patient five): −
Anti-peptide antibody response ([5]; HIV-positive patient four): +
Anti-peptide antibody response ([5]; HIV-positive patient fourteen): −
Anti-peptide antibody response ([5]; HIV-positive patient nine): −
Anti-peptide antibody response ([5]; HIV-positive patient one): −
Anti-peptide antibody response ([5]; HIV-positive patient seven): −
Anti-peptide antibody response ([5]; HIV-positive patient six): +
Anti-peptide antibody response ([5]; HIV-positive patient ten): −
Anti-peptide antibody response ([5]; HIV-positive patient thirteen): −
Anti-peptide antibody response ([5]; HIV-positive patient three): −
Anti-peptide antibody response ([5]; HIV-positive patient twelve): −
Anti-peptide antibody response ([5]; HIV-positive patient two): +
Anti-peptide antibody response ([5]; Normal-1 (HIV-seronegative)): −
Anti-peptide antibody response ([5]; Normal-2 (HIV-seronegative)): −
% Specific lysis at various E:T ratios 12.5:1 ([6]; E:T 12.5:1, PBMCs from patient restimulated 7 days in phytohemagglutinin medium, peptide-pulsed autologous B-LCL): 1.5%
% Specific lysis at various E:T ratios 25:1 ([6]; E:T 25:1, PBMCs from patient restimulated 7 days in phytohemagglutinin medium, peptide-pulsed autologous B-LCL): 3.7%
% Specific lysis at various E:T ratios 50:1 ([6]; E:T 50:1, PBMCs from patient restimulated 7 days in phytohemagglutinin medium, peptide-pulsed autologous B-LCL): 9.3%
% Specific lysis at various E:T ratios 100:1 ([6]; E:T 100:1, PBMCs from patient restimulated 7 days in phytohemagglutinin medium, peptide-pulsed autologous B-LCL): 12.2%
CTL activity against peptide-pulsed autologous B-LCLs ([6]; PBMCs from LTNP HD restimulated 7 days with PHA): significant CTL activity
specific lysis of peptide-pulsed target cells ([6]; […], compared with restimulated PBMCs): also observed
T-cell proliferative response ([7]; chimpanzee 40, control normal): − (−, Negative (SI < 2.0))
T-cell proliferative response ([7]; chimpanzee 62, HIV-infected): + (+, Positive (Stimulation Index [SI] > 2.0))
T-cell proliferative response ([7]; chimpanzee 69, HIV-infected): + (+, Positive (Stimulation Index [SI] > 2.0))
T-cell proliferative response ([7]; chimpanzee 73, control normal): − (−, Negative (SI < 2.0))
T-cell proliferative response ([7]; chimpanzee 80, HIV-infected): + (+, Positive (Stimulation Index [SI] > 2.0))
T-cell proliferative response ([7]; chimpanzee 99, HIV-infected): + (+, Positive (Stimulation Index [SI] > 2.0))
T-cell proliferative response ([7]; chimpanzee 100, HIV-infected): − (−, Negative (SI < 2.0))
T-cell proliferative response ([7]; chimpanzee 139, HIV-infected): + (+, Positive (Stimulation Index [SI] > 2.0))
T-cell proliferative response ([7]; chimpanzee 175, HIV-infected): + (+, Positive (Stimulation Index [SI] > 2.0))
T-cell proliferative response ([7]; chimpanzee 247, HIV-infected): − (−, Negative (SI < 2.0))
T-cell proliferative response ([7]; chimpanzee 310, HIV-infected): + (+, Positive (Stimulation Index [SI] > 2.0))
SI values ([7]; in three HIV-infected chimpanzees): above 5.1
number of HIV-infected chimpanzees with positive proliferative responses (SI>2.0) [7]: seven of the nine
